# Reference: patent US20240043420A1, “7-AZAINDOLE COMPOUNDS FOR INHIBITION OF BCR-ABL TYROSINE KINASES” (EnLiven Therapeutics, Inc., priority 2020, published 2024)
# Key:
# HL60 cells = assay: HL60 cell proliferation assay (CellTiter-Glo); type: cell-based; conditions: Homo sapiens, HL-60, 72 h, CellTiter-Glo viability, read-out: Cell Line (IC50, nM) HL60
# Summary of the method: (§1)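 Cells in IMDM/10% FBS seeded at 2,000 (K562) or 1,500 (HL60) per well, exposed to serially diluted compounds for 72 h at 37 °C, 5% CO2. Viability by CellTiter-Glo luminescence, normalized between DMSO (high) and cell-free media (low) controls.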
# K562 cells = assay: K562 cell proliferation assay (CellTiter-Glo); type: cell-based; conditions: Homo sapiens, K562, 72 h, CellTiter-Glo viability, read-out: Cell Line (IC50, nM) K562
# Summary of the method: as §1
# ABL1 (T315I) = ABL1 (T315I) (Homo sapiens, UniProt P00519, T315I); assay: Luminescence-based ABL kinase assay (ADP-Glo, 300 μM ATP), T315I mutant; type: biochemical
# Summary of the method: (§2)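 ABL1 (3.325 nM in the enzyme solution) was preincubated with compound for 30 min at RT in HEPES pH 7.5 buffer with MgCl2, EGTA, DTT, BSA and Brij-35. Adding Peptide 2 and ATP (6 μM and 1.2 mM in the start solution) began a 90 min RT reaction. ADP-Glo luminescence gave % activity and IC50.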
# ABL1 = molecular target: T1, ABL1 (Homo sapiens, UniProt P00519); assay: Luminescence-based ABL kinase assay (ADP-Glo, 300 μM ATP); type: biochemical
# T1 construct: purchased Carna Biosciences
# Summary of the method: as §2
# pCRKL in K562 cells = assay: pCRKL ELISA assay in K562 cells; type: cell-based; conditions: Homo sapiens, 1.5 h, 90 minutes incubation, read-out: PCRKL ELISA, Cell Line IC50 (nM) K562
# Method: K562 or Ba/F3 ABL T315I cells (2.0*10^5 cells/100 μl/well) were seeded in 96 well (Corning, cat #3799). Compounds were dissolved in DMSO, serially diluted in DMSO and then were added, mixed, and incubated for 90 minutes at 37° C., 5% CO2. Following the 90-minute incubation, plates were centrifuged for 5 min at 3000 RPM and supernatant was removed from each well. Cells were washed 3 times with 150 μl PBS prior to addition of 100 μl cell RIPA lysis buffer (Boston BioProducts, cat #BP-115D) supplied with 1×complete ULTRA cocktail inhibitor (Roche, 05892791001) and 1×PhosSTOP Phosphatase Inhibitor Cocktail Tablets (Roche, 04906837001). Cells were incubated with lysis buffer for 1 hour at 4° C. prior to storage at −80 C.
# A capture antibody able to detect phosphorylated and non-phosphorylated CRKL (R&D Systems, cat #AF5127) was added to Meso Scale Discovery (MSD) standard bind plates (MSD, cat #L15XA-3) at 5 ug/mL and incubated at 4° C. overnight. The next day, plates were washed with PBS+0.05% Tween20 (PBST) and 150 μl of 5% BSA blocking solution was added for 1 hour at room temperature with shaking. Plates were washed with PBST. Lysates were thawed and 30 μl of lysate was added to the MSD plates and incubated for 2 hours at room temperature with shaking. MSD plates were washed with PBST and 30 μl of a detection antibody that binds phosphorylated pCRKL (R&D Systems, cat #MAB6910) was added at 1 μg/mL to each well. Plates were incubated for 1 hour at room temperature with shaking. Plates were washed with PBST prior to addition of 30 μl of a sulfo tagged goat anti mouse detection antibody (MSD cat #R32AC-1). Plates were incubated for 1 hour at room temperature with shaking. Plates were washed with PBST prior to addition of 150 ul of 1×MSD read buffer T (MSD, cat 4R92TC-2). Electrochemiluminescence (ECLU) was read on an MSD plate reader (Meso Scale Discovery). The remaining activity by calculated as follows: 00 Relative activity=100×(ELCUsample−ECLULC)/(ECLUHC−ECLULC). The low and high controls (LC/HC) are generated from lysate from wells without cells or with cells treated with 0.1% DMSO, respectively. IC50 values were calculated using XLFit software using a nonlinear regression model with a sigmoidal dose response and are shown in Table 4 and Table 5 below.
Compound,IC50 (HL60 cells),IC50 (K562 cells),IC50 (ABL1 (T315I)),IC50 (ABL1),IC50 (pCRKL in K562 cells)
"COc1ccccc1-c1c[nH]c2nc(NC(=O)[C@@H]3C[C@@H]3F)ccc12 [Compound 3, (1S,2S)-2-fluoro-N-(3-(2-methoxyphenyl)-1H-pyrrolo[2,3-b]pyridin-6-yl)cyclopropane-1-carboxamide]",> 10000 nM,80.3 nM,0.896 nM,8.17 nM,174 nM
"COc1ncccc1-c1c[nH]c2nc(NC(=O)[C@H]3C[C@H]3F)ccc12 [Compound 26, (1R,2R)-2-fluoro-N-(3-(2-methoxypyridin-3-yl)-1H-pyrrolo[2,3-b]pyridin-6-yl)cyclopropane-1-carboxamide]",> 10000 nM,220 nM,68.4 nM,62.9 nM,680 nM
"COc1c(-c2c[nH]c3nc(NC(=O)C4CC4)ccc23)ccc2[nH]cnc12 [Compound 15, N-[3-(4-methoxy-1H-1,3-benzodiazol-5-yl)-1H-pyrrolo[2,3-b]pyridin-6-yl]cyclopropanecarboxamide]",1710 nM,181 nM,2.78 nM,12.1 nM,468 nM
"COc1ncccc1-c1n[nH]c2nc(NC(=O)[C@@H]3C[C@@H]3F)ccc12 [Compound 77, (1S,2S)-2-fluoro-N-[3-(2-methoxypyridin-3-yl)-1H-pyrazolo[3,4-b]pyridin-6-yl]cyclopropane-1-carboxamide]",> 10000 nM,727 nM,137 nM,106 nM,1120 nM
"CCOc1ncccc1-c1c[nH]c2nc(NC(=O)C3CC3)ccc12 [Compound 47, N-[3-(2-ethoxypyridin-3-yl)-1H-pyrrolo[2,3-b]pyridin-6-yl]cyclopropanecarboxamide]",> 10000 nM,292 nM,0.705 nM,7.47 nM,685 nM
"COc1cc2cn[nH]c2cc1-c1c[nH]c2nc(NC(=O)[C@@H]3C[C@@H]3F)ccc12 [Compound 58, (1S,2S)-2-fluoro-N-[3-(5-methoxy-1H-indazol-6-yl)-1H-pyrrolo[2,3-b]pyridin-6-yl]cyclopropane-1-carboxamide]",> 10000 nM,132 nM,3.4 nM,2.92 nM,281 nM
"COc1c(-c2c[nH]c3nc(NC(=O)[C@@H]4C[C@@H]4F)ccc23)cc2scnc2c1F [Compound 133, (1S,2S)-2-fluoro-N-[3-(4-fluoro-5-methoxy-1,3-benzothiazol-6-yl)-1H-pyrrolo[2,3-b]pyridin-6-yl]cyclopropane-1-carboxamide]",4040 nM,9.36 nM,6.1 nM,3.57 nM,278 nM
"COc1cccc(F)c1-c1n[nH]c2nc(NC(=O)[C@@H]3C[C@@H]3F)ccc12 [Compound 66, (1S,2S)-2-fluoro-N-[3-(2-fluoro-6-methoxyphenyl)-1H-pyrazolo[3,4-b]pyridin-6-yl]cyclopropane-1-carboxamide]",> 10000 nM,603 nM,38.7 nM,91.5 nM,702 nM
"COc1cc2ncsc2cc1-c1c[nH]c2nc(NC(=O)NCCN3CCNCC3)ccc12 [Compound 139, 3-[3-(5-methoxy-1,3-benzothiazol-6-yl)-1H-pyrrolo[2,3-b]pyridin-6-yl]-1-[2-(piperazin-1-yl)ethyl]urea; bis(formic acid)]",> 10000 nM,1380 nM,16.8 nM,18.6 nM,–
"COc1ccccc1-c1c[nH]c2nc(NC(=O)[C@@H]3C[C@@H]3CN3CCN(C)CC3)ccc12 (racemic) [Compound 41, cis-N-[3-(2-methoxyphenyl)-1H-pyrrolo[2,3-b]pyridin-6-yl]-2-[(4-methylpiperazin-1-yl)methyl]cyclopropane-1-carboxamide]",> 10000 nM,654 nM,26.8 nM,106 nM,–
"COc1ncccc1-c1c(F)[nH]c2nc(NC(=O)[C@@H]3C[C@@H]3F)ccc12 [Compound 68, (1S,2S)-2-fluoro-N-[2-fluoro-3-(2-methoxypyridin-3-yl)-1H-pyrrolo[2,3-b]pyridin-6-yl]cyclopropane-1-carboxamide]",3690 nM,607 nM,19.2 nM,78.2 nM,–
"COc1ccccc1-c1c[nH]c2nc(NC(=O)[C@H]3C[C@@H]3CO)ccc12 (relative stereo) [Compound 108, trans-2-(hydroxymethyl)-N-(3-(2-methoxyphenyl)-1H-pyrrolo[2,3-b]pyridin-6-yl)cyclopropane-1-carboxamide]",> 10000 nM,419 nM,17.8 nM,78.6 nM,–
"COc1ccnc(OC)c1-c1c[nH]c2nc(NC(=O)NCCN3CCNCC3)ccc12 [Compound 137, 3-[3-(2,4-dimethoxypyridin-3-yl)-1H-pyrrolo[2,3-b]pyridin-6-yl]-1-[2-(piperazin-1-yl)ethyl]urea]",> 10000 nM,733 nM,40.6 nM,36 nM,–
"COc1cc2sncc2cc1-c1c[nH]c2nc(NC(=O)[C@@H]3C[C@@H]3F)ccc12 [Compound 84, (1S,2S)-2-fluoro-N-[3-(6-methoxy-1,2-benzothiazol-5-yl)-1H-pyrrolo[2,3-b]pyridin-6-yl]cyclopropane-1-carboxamide]",> 10000 nM,150 nM,14.9 nM,37 nM,–
"O=C(Nc1ccc2c(-c3c(F)cccc3OC3CC3)c[nH]c2n1)[C@@H]1C[C@@H]1F [Compound 127, (1S,2S)—N-[3-(2-cyclopropoxy-6-fluorophenyl)-1H-pyrrolo[2,3-b]pyridin-6-yl]-2-fluorocyclopropane-1-carboxamide]",> 10000 nM,100 nM,0.745 nM,22.1 nM,–
"COc1ccc(F)c(OC)c1-c1c[nH]c2nc(NC(=O)[C@@H]3C[C@@H]3F)ccc12 [Compound 119, (1S,2S)-2-fluoro-N-[3-(3-fluoro-2,6-dimethoxyphenyl)-1H-pyrrolo[2,3-b]pyridin-6-yl]cyclopropane-1-carboxamide]",> 10000 nM,32.2 nM,2.57 nM,4.67 nM,–
"O=C(Nc1ccc2c(-c3cccnc3OC(F)F)c[nH]c2n1)C1CC1 [Compound 48, N-[3-[2-(difluoromethoxy)pyridin-3-yl]-1H-pyrrolo[2,3-b]pyridin-6-yl]cyclopropanecarboxamide]",9210 nM,777 nM,244 nM,94.9 nM,–
"COc1ncc(F)cc1-c1c[nH]c2nc(NC(=O)[C@@H]3C[C@@H]3F)ccc12 [Compound 92, (1S,2S)-2-fluoro-N-[3-(5-fluoro-2-methoxypyridin-3-yl)-1H-pyrrolo[2,3-b]pyridin-6-yl]cyclopropane-1-carboxamide]",> 10000 nM,248 nM,27.3 nM,39.4 nM,–
"O=C(Nc1ccc2c(-c3ccccc3F)c[nH]c2n1)C1CC1 [Compound 5, N-[3-(2-fluorophenyl)-1H-pyrrolo[2,3-b]pyridin-6-yl]cyclopropanecarboxamide]",> 10000 nM,713 nM,32.9 nM,119 nM,–
"COc1ccccc1-c1c[nH]c2nc(NC(=O)NCCOCCN(C)C)ccc12 [Compound 124, 3-[2-[2-(dimethylamino)ethoxy]ethyl]-1-[3-(2-methoxyphenyl)-1H-pyrrolo[2,3-b]pyridin-6-yl]urea]",> 10000 nM,359 nM,30.6 nM,317 nM,–
